Reference: US20250313879A1, “Fluorescent Probe for Detecting Peptide Bond Hydrolase” (The University of Tokyo, priority 2022, published 2025)
≈ marks a conversion by molar mass, not a printed value.

How the values were obtained:
[1] = test system: peptidase activity in human plasma sample; experiment: Enzyme activity assay in microdevice with human plasma, peptidase probes; type: biochemical; conditions: 50 μM probe, human plasma 5,000 fold dilution, 25° C. for 2 hours
Experimental: (§1) • 1. GP-sHMRG as a fluorescent probe for detecting peptidase activity was diluted with an assay buffer to 100 μM. The composition of the assay buffer is 100 mM HEPES-NaOH (pH 7.4), 1 mM MgCl2, 1 mM CaCl2, 1 mM DTT, 3 mM Triton X-100. • 2. Next, a human plasma sample was diluted by 2,500 times with the above assay buffer, and mixed in an equal amount with the diluted solution of the probe. At this time, the final concentrations of both are 50 μM for GP-sHMRG and 5,000 fold dilution for the human plasma sample. • 3. The mixed solution of both was then added to a microdevice, followed by the addition of sealing oil to enclose the solution in each well. • 4. The microdevice in which the solution was enclosed was incubated at 25° C. for 2 hours, and then the fluorescence intensity of each well was measured with a fluorescence microscope.
as §1, with “1. Ac-Ala-sHMRG” for “1. GP-sHMRG”, “by 250” for “by 2,500”, “for Ac-Ala-sHMRG” for “for GP-sHMRG”, “and 500” for “and 5,000”, “at 37°” for “at 25°”, “for 4” for “for 2”
• 1. Ac-GP-sSiR as a fluorescent probe for detecting peptidase activity was diluted with an assay buffer to 100 μM. The composition of the assay buffer is 100 mM HEPES-NaOH (pH 7.4), 1 mM MgCl2, 1 mM CaCl2, 1 mM DTT, 3 mM Triton X-100. • 2. […] The microdevice in which the solution was enclosed was incubated at 37° C. for 2 hours, and then the fluorescence intensity of each well was measured with a fluorescence microscope.

DPP4 = target: T1, DPP4 (Homo sapiens, UniProt P27487); experiment: Diagnostic experiment of pancreatic cancer utilizing single-molecule enzyme activity of DPP4; type: biochemical
T1 construct: from tissue; host or cells: human plasma of pancreatic cancer patients and healthy subjects
Experimental: In order to detect the single-molecule enzyme activity of DPP4, an experiment to verify the availability of the probe GP-sHMRG to which Gly-Pro is bonded as a reaction point to detect a pancreatic cancer biomarker was performed in the following procedures. • 1. GP-sHMRG as a DPP4 detecting probe was diluted with an assay buffer to 100 μM. The composition of the assay buffer is 100 mM HEPES-NaOH (pH 7.4), 1 mM MgCl2, 1 mM CaCl2), 1 mM DTT, 3 mM Triton X-100. • 2. Next, human plasma samples collected from 30 patients with pancreatic cancer and 30 healthy subjects were each diluted by 2,500 times with the above assay buffer, and mixed in an equal amount with the diluted solution of GP-sHMRG. At this time, the final concentrations of both are 50 μM for the GP-sHMRG probe and 5,000 fold dilution for the human plasma sample. • 3. The mixed solution of both was then added to a microdevice, followed by the addition of sealing oil to enclose the solution in each well. • 4. The microdevice in which the solution was enclosed was incubated at 25° C. for 2 hours, and then the fluorescence intensity of each well was measured with a fluorescence microscope. […] The histogram created based on the detected fluorescence intensity of each well is approximated to a curve including two normal distributions.
Specifically, in this example, an ROC curve for determination based on the enzyme activity of DPP4 determined based on the proportion of the high activity group is created, and when a threshold is subtracted at the time when the proportion of the high activity group is 55%, the sensitivity is 37% and the specificity is 97% (the right view of FIG. 4). It is possible to determine pancreatic cancer by such an ROC curve.

[2] = Solubility in sealing oil (hexadecane); type: physicochemical; conditions: oil or lipid, kinetic from dmso stock, room temperature (25° C.), three tests, average value±standard deviation
Experimental: That is, 1 μL of a 10 mM DMSO solution of the test compound was added with respect to 100 μL of hexadecane as sealing oil, and the mixture was sonicated and suspended at room temperature (25° C.) for 1 minute. Thereafter, the solution was centrifuged for 30 seconds, 50 μL of the supernatant was collected and mixed with 100 μL of methanol, and a compound dissolved in hexadecane was extracted. Thereafter, the methanol solution from which the compound was extracted was analyzed by ultra performance liquid chromatography (UPLC) (eluent: A/B=95/5>5/95, A: 0.1% formic acid-containing 100% H2O, B: 0.1% formic acid-containing 100% CH3CN), and the concentration of the compound in the methanol solution was calculated from the peak area. In the calculation of the solution concentration using the UPLC peak area, solutions having a plurality of concentrations were prepared and measured for each compound, then a calibration curve was prepared (FIG. 5), and the calculation was performed according to the calibration curve.

dipeptidyl peptidase [3] = experiment: Signal/noise ratio of enzymolysate in cuvette; type: biochemical; conditions: 10 μM probe, 17 ng/mL dipeptidyl peptidase, 25° C. 9 hours, @527 nm
Experimental: (§2) For two types of compounds Glu-sSiR (PB206/Example 12) and GP-sHMRG (PB109/Example 7), the signal/noise ratios of the enzymolysates before and after the enzyme reaction in the cuvette and the microdevice were each measured as follows. In the following experiments, the composition of the assay buffer is 100 mM HEPES-NaOH (pH 7.4), 1 mM MgCl2, 1 mM CaCl2), […].
GP-sHMRG was diluted with an assay buffer so as to be 10 μM, then added to a quartz cuvette, and the fluorescence spectrum before the enzyme reaction was measured with a fluorometer (excitation wavelength: 500 nm). Thereafter, dipeptidyl peptidase was added so that the concentration in the solution was 17 ng/mL, the solution was incubated at 25° C. for 9 hours, and then the fluorescence spectrum was measured. The fluorescence spectra before and after the enzyme reaction were compared, the ratio of the values at a wavelength at which the fluorescence intensity was maximized was calculated as the signal/noise ratio of the enzymolysate, the ratio was 481 times (@527 nm) (see FIG. 7B).

dipeptidyl peptidase [4] = experiment: Signal/noise ratio of enzymolysate in microdevice; type: biochemical; conditions: 30 μM probe, 0.2 ng/mL dipeptidyl peptidase, 25° C. 2 hours
Experimental: as §2
For GP-sHMRG, three kinds of solutions of (iv) only an assay buffer, (v) 30 μM of GP-sHMRG, and (vi) 30 μM of GP-sHMRG and 0.2 ng/mL of dipeptidyl peptidase were prepared, and each solution was added to a microdevice, followed by the addition of sealing oil to enclose the solution in each well. The microdevice in which the solution was enclosed was incubated at 25° C. for 2 hours, and then the fluorescence intensity of each well was measured with a fluorescence microscope. When a difference between the average values of the fluorescence intensities of the respective wells in (v) and (iv) was defined as noise, a difference between the average value of the fluorescence intensities of the wells in which the enzyme was encapsulated in (vi) and the average value of the fluorescence intensities of the respective wells in (iv) was defined as a signal, and a ratio of these values was calculated as the signal/noise ratio of the enzymolysate, the ratio was 287 times (see FIG. 8, panel B). […]

[5] = threshold: proportion of the high activity group is 55%, pancreatic cancer vs healthy

T1 sequence (P27487 whole entry): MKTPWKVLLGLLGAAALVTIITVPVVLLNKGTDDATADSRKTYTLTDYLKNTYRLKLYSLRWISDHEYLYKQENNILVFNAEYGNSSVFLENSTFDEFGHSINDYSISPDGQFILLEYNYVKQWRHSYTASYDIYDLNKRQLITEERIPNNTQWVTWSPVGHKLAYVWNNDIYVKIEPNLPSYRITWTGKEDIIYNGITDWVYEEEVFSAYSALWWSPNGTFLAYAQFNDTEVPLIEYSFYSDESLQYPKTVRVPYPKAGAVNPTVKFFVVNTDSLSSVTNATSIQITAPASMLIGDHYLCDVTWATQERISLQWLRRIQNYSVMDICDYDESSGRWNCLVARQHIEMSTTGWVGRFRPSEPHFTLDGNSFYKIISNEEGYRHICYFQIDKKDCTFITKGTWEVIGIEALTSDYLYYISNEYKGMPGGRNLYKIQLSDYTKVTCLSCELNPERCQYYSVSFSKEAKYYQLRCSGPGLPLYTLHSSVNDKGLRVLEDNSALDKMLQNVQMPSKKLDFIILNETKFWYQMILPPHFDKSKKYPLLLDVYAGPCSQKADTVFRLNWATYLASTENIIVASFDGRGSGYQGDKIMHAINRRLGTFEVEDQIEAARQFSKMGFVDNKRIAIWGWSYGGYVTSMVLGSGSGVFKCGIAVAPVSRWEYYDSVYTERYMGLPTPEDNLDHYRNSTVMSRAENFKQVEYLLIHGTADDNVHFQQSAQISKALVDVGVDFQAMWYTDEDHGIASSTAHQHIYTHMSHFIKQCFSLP

- ratio of the high activity group to the total of high and low activity groups (DPP4; patients with pancreatic cancer compared with healthy subjects, 50 μM probe, plasma 5,000 fold dilution, 25° C. 2 hours): significant increase
- sensitivity (ROC curve, DPP4 activity) (DPP4; [5]): 37%
- specificity (ROC curve, DPP4 activity) (DPP4; [5]): 97%
- solubility at 1 min [2]: 0.27 ± 0.026 µM (≈ 0.149 µg/mL)
- signal/noise ratio of the enzymolysate (dipeptidyl peptidase [3]): 481 times
- signal/noise ratio of the enzymolysate (dipeptidyl peptidase [4]): 287 times
SMILES: NCC(=O)N1CCCC1C(=O)Nc1ccc2c(c1)Oc1cc(N)ccc1C21OCc2cc(S(=O)(=O)O)ccc21 (stereo not shown) [GP-sHMRG]
- fluorescence intensity of wells in which the reacting enzyme was enclosed [1]: increase in fluorescence intensity was observed
